Assay results reported in patent publication US20230045421A1 (priority 2018, published 2023).
pEC50: −log10 of the molar value.

Each compound was assayed on HBV rcDNA (assay: HepDE19 assay with bDNA quantitation of HBV rcDNA). Conditions: HepDE19 assay, inhibition of formation of rcDNA; read-out: DE-19bDNA EC50.
Assay type: cell-based, hepatitis B virus
How it was run: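 HepDE19 cells (HepG2-derived, Tet-regulated HBV replication) were deprived of tetracycline and then exposed to compounds for 7 days at 37 °C in 0.5% DMSO, 8-point titration from 25 μM. rcDNA was quantified by bDNA and EC50/EC90 came from 4-parameter fits. CC50 was measured by CellTiter-Glo ATP content on replicate plates after 4 days.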
`CC(c1c[nH]c(=O)c2ccccc12)N(CC1CCOC1)C(=O)Nc1ccc(F)c(Cl)c1` (stereo not shown) [Compound 175] showed a pEC50 of 6.07.

Same assay, conditions: Hepatitis B virus, HepDE19, HepDE19 assay, inhibition of formation of rcDNA; read-out: DE-19bDNA EC50
With `C[C@H](c1c[nH]c(=O)c2ccccc12)N(C)C(=O)Nc1ccc(F)cc1` [Compound 90, (R)-3-(4-Fluorophenyl)-1-methyl-1-(1-(1-oxo-1,2-dihydroisoquinolin-4-yl)ethyl)urea] the pEC50 was 6.34.
With `C[C@H](c1c[nH]c(=O)c2ccccc12)N(C)C(=O)Nc1cc(F)c(F)c(F)c1` [Compound 91, (R)-1-Methyl-1-(1-(1-oxo-1,2-dihydroisoquinolin-4-yl)ethyl)-3-(3,4,5-trifluorophenyl)urea] the pEC50 was 6.80.
In the case of `C[C@H](c1c[nH]c(=O)c2ccccc12)N(C)C(=O)Nc1ccc(F)c(F)c1` [Compound 92, (R)-3-(3,4-Difluorophenyl)-1-methyl-1-(1-(1-oxo-1,2-dihydroisoquinolin-4-yl)ethyl)urea], the pEC50 was 6.64.
In the case of `C[C@H](c1c[nH]c(=O)c2ccccc12)N(CC(F)F)C(=O)Nc1ccc(F)c(Cl)c1` [Compound 96, (R)-3-(3-Chloro-4-fluorophenyl)-1-(2,2-difluoroethyl)-1-(1-(1-oxo-1,2-dihydroisoquinolin-4-yl)ethyl)urea], the pEC50 was 6.66.
Work on `Cc1cc(NC(=O)N(CC(F)F)[C@H](C)c2c[nH]c(=O)c3ccccc23)ccc1F` [Compound 97, (R)-3-(3-Methyl-4-fluorophenyl)-1-(2,2-difluoroethyl)-1-(1-(1-oxo-1,2-dihydroisoquinolin-4-yl)ethyl)urea] yielded a pEC50 of 6.96.
With `[2H]C([2H])([2H])C([2H])([2H])N(C(=O)Nc1ccc(F)c(Cl)c1)[C@H](C)c1c[nH]c(=O)c2ccccc12` [Compound 99, (R)-3-(3-Chloro-4-fluorophenyl)-1-(ethyl-d5)-1-(1-(1-oxo-1,2-dihydroisoquinolin-4-yl)ethyl)urea] the pEC50 was 7.52.
In the case of `COc1ncc([C@@H](C)N(CC(F)(F)F)C(=O)Nc2ccc(F)c(Cl)c2)c2ccccc12` [Compound 101, (R)-3-(3-Chloro-4-fluorophenyl)-1-(1-(1-methoxyisoquinolin-4-yl)ethyl)-1-(2,2,2-trifluoroethyl)urea], the pEC50 was 6.38.
With `CC(c1c[nH]c(=O)c2cnccc12)N(C)C(=O)Nc1ccc(F)c(Cl)c1` (stereo not shown) [Compound 111, 3-(3-Chloro-4-fluorophenyl)-1-methyl-1-(1-(1-oxo-1,2-dihydro-2,7-naphthyridin-4-yl)ethyl)urea] the pEC50 was 6.60.
Compound `CNC(=O)CN(C(=O)Nc1ccc(F)c(Cl)c1)C(C)c1c[nH]c(=O)c2ccccc12` (stereo not shown) [Compound 116, 2-(3-(3-Chloro-4-fluorophenyl)-1-(1-(1-oxo-1,2-dihydroisoquinolin-4-yl)ethyl)ureido)-N-methylacetamide] has a pEC50 of 6.00.
Work on `CC(c1c[nH]c(=O)c2ccncc12)N(C)C(=O)Nc1ccc(F)c(Cl)c1` (stereo not shown) [Compound 127, 3-(3-chloro-4-fluorophenyl)-1-methyl-1-(1-(1-oxo-1,2-dihydro-2,6-naphthyridin-4-yl)ethyl)urea] yielded a pEC50 of 6.00.
In the case of `CC(c1c[nH]c(=O)c2ncccc12)N(C)C(=O)Nc1ccc(F)c(Cl)c1` (stereo not shown) [Compound 153, 3-(3-chloro-4-fluorophenyl)-1-methyl-1-(1-(8-oxo-7,8-dihydro-1,7-naphthyridin-5-yl)ethyl)urea], the pEC50 was 6.06.
Work on `CC(c1c[nH]c(=O)c2cnccc12)N(CCCO)C(=O)Nc1ccc(F)c(Cl)c1` (stereo not shown) [Compound 159, 3-(3-Chloro-4-fluorophenyl)-1-(3-hydroxypropyl)-1-(1-(1-oxo-1,2-dihydro-2,7-naphthyridin-4-yl)ethyl)urea] yielded a pEC50 of 7.00.
`CC(c1c[nH]c(=O)c2ccccc12)N(CC1CCOC1)C(=O)Nc1ccc(F)c(Cl)c1` (stereo not shown) [Compound 165] gave a pEC50 of 5.85.

Same assay, conditions: Hepatitis B virus, HepDE19, HepDE19 assay, inhibition of formation of relaxed circular DNA (rcDNA), bDNA quantitation; read-out: DE-19bDNA EC50
`CC(c1c[nH]c(=O)c2c(F)cc(F)cc12)N(CCCO)C(=O)Nc1ccc(F)c(Cl)c1` (stereo not shown) [Compound 373, 3-(3-Chloro-4-fluorophenyl)-1-(1-(6,8-difluoro-1-oxo-1,2-dihydroisoquinolin-4-yl)ethyl)-1-(3-hydroxypropyl)urea] was tested, and the pEC50 was 5.59.

Same assay, conditions: Hepatitis B virus, HepDE19, read-out: DE-19bDNA EC50 (μM), HepDE19 assay, inhibition of formation of rcDNA
`C[C@H](c1c[nH]c(=O)c2ccccc12)N(C)C(=O)Nc1cccc(F)c1` [Compound 93, (R)-3-(3-Fluorophenyl)-1-methyl-1-(1-(1-oxo-1,2-dihydroisoquinolin-4-yl)ethyl)urea] was tested, and the EC50 was 0.52 µM.
For `C[C@H](c1c[nH]c(=O)c2ccccc12)N(C)C(=O)Nc1ccnc(Cl)c1` [Compound 94, (R)-3-(2-Chloropyridin-4-yl)-1-methyl-1-(1-(1-oxo-1,2-dihydroisoquinolin-4-yl)ethyl)urea], the EC50 was 1 µM.
For `C[C@H](c1c[nH]c(=O)c2ccccc12)N(C)C(=O)Nc1ccc(F)c(C#N)c1` [Compound 98, (R)-3-(3-Cyano-4-fluorophenyl)-1-methyl-1-(1-(1-oxo-1,2-dihydroisoquinolin-4-yl)ethyl)urea], the EC50 was 0.16 µM.

Same assay, conditions: Hepatitis B virus, HepDE19, read-out: DE-19bDNA EC50 (μM), HepDE19 assay, inhibition of formation of relaxed circular DNA (rcDNA), bDNA quantitation
In the case of `C[C@H](c1c[nH]c(=O)c2ccccc12)N(C)C(=O)Nc1ccc(Cl)cc1` [Compound 293, (R)-3-(4-Chlorophenyl)-1-methyl-1-(1-(1-oxo-1,2-dihydroisoquinolin-4-yl)ethyl)urea], the EC50 was 0.34 µM.
With `C[C@H](c1c[nH]c(=O)c2ccccc12)N(C)C(=O)Nc1ccc(Br)cc1` [Compound 294, (R)-3-(4-Bromophenyl)-1-methyl-1-(1-(1-oxo-1,2-dihydroisoquinolin-4-yl)ethyl)urea] the EC50 was 0.87 µM.
With `CC(NC(=O)Nc1ccc(F)c(Cl)c1)c1c[nH]c(=O)c2cc(F)c(F)cc12` (stereo not shown) [Compound 480, 1-(3-Chloro-4-fluorophenyl)-3-(1-(6,7-difluoro-1-oxo-1,2-dihydroisoquinolin-4-yl)ethyl)urea] the EC50 was 0.85 µM.
Compound `CC(NC(=O)Nc1ccc(F)c(C#N)c1)c1c[nH]c(=O)c2cc(F)c(F)cc12` (stereo not shown) [Compound 495, 1-(3-Cyano-4-fluorophenyl)-3-(1-(6,7-difluoro-1-oxo-1,2-dihydroisoquinolin-4-yl)ethyl)urea] has an EC50 of 0.33 µM.
